SMILES strings stand for the structures.

The target in assay [1] is Cyclin-dependent kinase 2 (Homo sapiens, UniProt P24941).
Description: Inhibitory activity against human cyclin-dependent kinase 2 (CDK2)
Assay [2] has as its target Cyclin-dependent kinase 1 (Homo sapiens, UniProt P06493).
Description: Inhibitory activity against human cyclin-dependent kinase 1 (CDK1)

Chain of Cyclin-dependent kinase 1 (P06493 whole entry): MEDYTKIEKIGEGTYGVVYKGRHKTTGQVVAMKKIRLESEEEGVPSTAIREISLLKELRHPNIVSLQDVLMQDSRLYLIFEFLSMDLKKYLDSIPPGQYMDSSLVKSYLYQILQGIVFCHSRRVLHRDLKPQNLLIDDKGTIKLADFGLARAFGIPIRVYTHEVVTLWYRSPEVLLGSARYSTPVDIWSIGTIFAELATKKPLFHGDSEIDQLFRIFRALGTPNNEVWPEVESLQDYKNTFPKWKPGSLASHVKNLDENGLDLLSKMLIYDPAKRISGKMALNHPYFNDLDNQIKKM

One may read the IC50 as the concentration that gives 50% inhibition. The low end stands for inhibition by little substance, the high end for a need for much substance. `O=C1Nc2ccc3ncsc3c2/C1=C/Nc1ccc(S(=O)(=O)Nc2ccccc2)cc1`: the IC50 amounted to 4.3 nM in assay [1] and 41 nM in assay [2].
As for `CCc1ccc2c(c1)NC(=O)C2=NNc1ccc(S(N)(=O)=O)cc1`, the 50% inhibitory concentration (IC50) amounted to 21 nM in assay [1] and 660 nM in assay [2].
For `CNS(=O)(=O)c1ccc(N/C=C2\C(=O)Nc3ccc4ncsc4c32)cc1` the same measures were 5.6 nM and 64 nM.
For `CN(C)c1ccc2c(c1)/C(=C/Nc1ccc(S(N)(=O)=O)cc1)C(=O)N2` [GW416469X] the same measures were 310 nM and 2800 nM.
As for `NS(=O)(=O)c1ccc(NN=C2C(=O)Nc3ccc(S(=O)(=O)O)cc32)cc1`, the 50% inhibitory concentration (IC50) in assay [1] came out at 15 nM; in assay [2], 130 nM.
For `NC(=O)c1cccc2c1C(=NNc1ccc(S(N)(=O)=O)cc1)C(=O)N2`, the half-maximal inhibitory concentration (IC50) in assay [1] and in assay [2] was greater than 1000 nM each time.
For the molecule `NS(=O)(=O)c1ccc(NN=C2C(=O)Nc3cc(Br)ccc32)cc1`, the IC50 in assay [1] was 43 nM; in assay [2], 520 nM.
In the same order, the values of `COCCOCCOCCOCCN(C)S(=O)(=O)c1ccc(N/C=C2\C(=O)Nc3ccc4ncsc4c32)cc1` are 1 nM and 45 nM.
In the same order, the values of `CCOC(=O)c1cccc2c1/C(=C/Nc1ccc(S(N)(=O)=O)cc1)C(=O)N2` are 8.9 nM and 130 nM.
For `CCOc1cccc2c1C(=NNc1ccc(S(N)(=O)=O)cc1)C(=O)N2`, the IC50 in assay [1] stood at 93 nM; in assay [2], 550 nM.
In the case of `COc1cccc(OC)c1CNC(=O)c1ccc2c(c1)C(=NNc1ccc(S(N)(=O)=O)cc1)C(=O)N2`, the IC50 in assay [1] is 1.7 nM; in assay [2], 9.3 nM.
For `Nc1ccc2c(c1)C(=NNc1ccc(S(N)(=O)=O)cc1)C(=O)N2` the same measures were 74 nM and 1400 nM.
For `NS(=O)(=O)c1ccc(NN=C2C(=O)Nc3ccc(O)cc32)cc1` the same measures were 10 nM and 77 nM.
On to `COCCOCCOCCOCCNS(=O)(=O)c1ccc(N/C=C2\C(=O)Nc3ccc4ncsc4c32)cc1`, for which the half-inhibitory concentration (IC50) in assay [1] amounted to 4.5 nM; in assay [2] it was 72 nM.
With `CC(C)CC(=O)c1ccc2c(c1)/C(=C/Nc1ccc(S(N)(=O)=O)cc1)C(=O)N2`, the concentration for half-maximal inhibition (IC50) in assay [1] came to 1.9 nM; in assay [2], 16 nM.
In the same order, the values of `NS(=O)(=O)c1ccc(NN=C2C(=O)Nc3cccc(-c4cc[nH]n4)c32)cc1` are 19 nM and 250 nM.
For `CC(C)c1cccc2c1C(=NNc1ccc(S(N)(=O)=O)cc1)C(=O)N2`, the IC50 amounted to 2.5 nM in assay [1] and 37 nM in assay [2].
In the same order, the values of `NS(=O)(=O)Cc1ccc(N/C=C2\C(=O)Nc3ccc4ncsc4c32)cc1` are 7.5 nM and 100 nM.
In the case of `COc1ccc2c(c1)C(=NNc1ccc(S(N)(=O)=O)cc1)C(=O)N2`, the 50% inhibitory concentration (IC50) in assay [1] turned out to be 12 nM; in assay [2] it was 210 nM.
In the same order, the values of `NS(=O)(=O)c1ccc(N/N=C2\C(=O)Nc3ccc4ncccc4c32)cc1` [GW305178X] are 1.6 nM and 12 nM.
In the case of `O=C1Nc2ccc3ncsc3c2/C1=C/Nc1ccc(S(=O)(=O)NCCOCCO)cc1`, the results for the half-inhibitory concentration (IC50) in assay [1] and in assay [2] were 0.54 nM and 12 nM, respectively.
With `CS(=O)(=O)c1ccc2c(c1)C(=NNc1ccc(S(N)(=O)=O)cc1)C(=O)N2`, the figures for the IC50 in assay [1] and in assay [2] were 16 nM and 350 nM, respectively.
As for `CN(C)CCNS(=O)(=O)c1ccc(N/C=C2\C(=O)Nc3ccccc32)cc1`, the values for the half-maximal inhibitory concentration (IC50) in assay [1] and in assay [2] were 1000 nM and 5500 nM, respectively.
In the same order, the values of `NS(=O)(=O)c1ccc(N/C=C2\C(=O)Nc3ccc(C(=O)O)cc32)cc1` are 28 nM and 150 nM.
For `NS(=O)(=O)c1ccc(N/C=C2\C(=O)Nc3cc(CO)ccc32)cc1` the same measures were 61 nM and 740 nM.
In the same order, the values of `O=C1Nc2ccc3ncsc3c2/C1=C/Nc1ccc(S(=O)(=O)NCCc2c[nH]cn2)cc1` are 3.6 nM and 38 nM.
With `NS(=O)(=O)c1ccc(NN=C2C(=O)Nc3ccc(C(=O)NCCCn4ccnc4)cc32)cc1` [GW290597X], the results for the IC50 in assay [1] and in assay [2] were 25 nM and 230 nM, respectively.
Regarding `COc1ccc2c(c1Cl)C(=NNc1ccc(S(N)(=O)=O)cc1)C(=O)N2`, the IC50 in assay [1] was determined as 54 nM; in assay [2] it was 1700 nM.
In the same order, the values of `NS(=O)(=O)c1ccc(NN=C2C(=O)Nc3cc(Oc4ccccc4)ccc32)cc1` are greater than 10000 nM and greater than 10000 nM.
Turning to `N=C(N)NS(=O)(=O)c1ccc(N/C=C2\C(=O)Nc3ccc4ncsc4c32)cc1`, the half-inhibitory concentration (IC50) was determined as 3.3 nM in assay [1] and 45 nM in assay [2].
For `CN(C)C(=O)c1ccc2c(c1)C(=NNc1ccc(S(N)(=O)=O)cc1)C(=O)N2`, the IC50 worked out at 17 nM in assay [1] and 130 nM in assay [2].
For `CN(c1ccccn1)S(=O)(=O)c1ccc(N/C=C2\C(=O)Nc3ccc4ncsc4c32)cc1`, the figures for the half-inhibitory concentration (IC50) in assay [1] and in assay [2] were 5.6 nM and 64 nM, respectively.
For `NS(=O)(=O)c1ccc(NC=C2C(=O)Nc3ccc4ncsc4c32)cc1` [GW589933X] the same measures were 2.8 nM and 29 nM.
Turning to `NS(=O)(=O)c1ccc(N/N=C2\C(=O)Nc3ccc(-c4cnco4)cc32)cc1` [GW276655X], the values for the IC50 in assay [1] and in assay [2] were 2.3 nM and 10 nM, respectively.
Turning to `NS(=O)(=O)c1ccc(NN=C2C(=O)Nc3ccc(I)cc32)cc1`, the concentration for half-maximal inhibition (IC50) in assay [1] worked out at 11 nM; in assay [2], 95 nM.
In the same order, the values of `NS(=O)(=O)c1ccc(NN=C2C(=O)Nc3ccc(S(N)(=O)=O)cc32)cc1` are 43 nM and 170 nM.
As for `CC(C)(C)c1ccc2c(c1)NC(=O)/C2=N\Nc1ccc(S(N)(=O)=O)cc1`, the IC50 in assay [1] and in assay [2] was greater than 10000 nM in each case.
For the molecule `O=C1Nc2ccc3ncsc3c2/C1=C/Nc1ccc(S(=O)(=O)NCCO)cc1`, the half-inhibitory concentration (IC50) in assay [1] is 4.7 nM; in assay [2] it was 41 nM.
For `NS(=O)(=O)c1ccc(N/N=C2\C(=O)Nc3ccccc32)cc1` the same measures were 120 nM and 1300 nM.
As for `NS(=O)(=O)c1ccc(NN=C2C(=O)Nc3ccc4[nH]nc(Cl)c4c32)cc1`, the IC50 in assay [1] stood at 2.2 nM; in assay [2], 83 nM.
For `NS(=O)(=O)c1ccc(N/C=C2\C(=O)Nc3ccccc32)cc1` the same measures were 690 nM and 3000 nM.
In the case of `Cc1c([N+](=O)[O-])ccc2c1C(=NNc1ccc(S(N)(=O)=O)cc1)C(=O)N2`, the IC50 was found to be 4.6 nM in assay [1] and 87 nM in assay [2].
In the case of `Cc1cccc2c1NC(=O)/C2=C\Nc1ccc(S(N)(=O)=O)cc1`, the IC50 in assay [1] and in assay [2] was greater than 10000 nM each time.
Turning to `COC(=O)c1ccc2c(c1)/C(=C/Nc1ccc(S(N)(=O)=O)cc1)C(=O)N2`, the IC50 in assay [1] came out at 2.1 nM; in assay [2], 12 nM.
As to `NS(=O)(=O)c1ccc(N/C=C2\C(=O)Nc3ccc(-c4cnco4)cc32)cc1`, the IC50 is 2.5 nM in assay [1] and 17 nM in assay [2].
Take `Cc1cc(C)c2c(c1)/C(=C/Nc1ccc(S(N)(=O)=O)cc1)C(=O)N2`: the IC50 in assay [1] and in assay [2] was greater than 10000 nM in each case.
For the molecule `CS(=O)(=O)Cc1ccc(N/C=C2\C(=O)Nc3ccc4ncsc4c32)cc1`, the IC50 is 50 nM in assay [1] and 1200 nM in assay [2].
For `NS(=O)(=O)c1ccc(N/C=C2\C(=O)Nc3cccc(CO)c32)cc1` the same measures were 54 nM and 1700 nM.
Consider `O=C1Nc2ccc3ncsc3c2/C1=C/Nc1ccc(CS(=O)(=O)NCCO)cc1`, for which the values for the IC50 in assay [1] and in assay [2] were 13 nM and 200 nM, respectively.
Turning to `Cc1cccc(C)c1NS(=O)(=O)c1ccc(N/C=C2\C(=O)Nc3ccc4ncsc4c32)cc1`, the 50% inhibitory concentration (IC50) came to 281 nM in assay [1] and 14000 nM in assay [2].
`CNS(=O)(=O)Cc1ccc(NN=C2C(=O)Nc3ccc4ncsc4c32)cc1` showed an IC50 in assay [2] of 56 nM.
For `NS(=O)(=O)c1ccc(NN=C2C(=O)Nc3ccc(C(=O)NCc4ccncc4)cc32)cc1` [GW300657X], the 50% inhibitory concentration (IC50) in assay [1] was found to be 8.9 nM; in assay [2], 74 nM.
Regarding `CC(C)c1ccc2c(c1)NC(=O)/C2=N/Nc1ccc(S(N)(=O)=O)cc1` [GW300653X], the IC50 in assay [1] was determined as 75 nM; in assay [2], 790 nM.
In assay [2], `NS(=O)(=O)c1ccc(N/N=C2\C(=O)Nc3cccc(/C=C/c4ccc(O)cc4)c32)cc1` displayed a concentration for half-maximal inhibition (IC50) of 170 nM.
As to `C/C(Nc1ccc(S(N)(=O)=O)cc1)=C1/C(=O)Nc2ccccc21` [GW335962X], the IC50 was 360 nM in assay [1] and 2300 nM in assay [2].
In the case of `NS(=O)(=O)c1ccc(NN=C2C(=O)Nc3ccc([N+](=O)[O-])cc32)cc1`, the 50% inhibitory concentration (IC50) in assay [1] was 15 nM; in assay [2], 710 nM.
For the molecule `NS(=O)(=O)c1ccc(N/N=C2\C(=O)Nc3ccc4ncsc4c32)cc1`, the IC50 in assay [1] was found to be 7.1 nM; in assay [2], 43 nM.
In the same order, the values of `NS(=O)(=O)c1ccc(NN=C2C(=O)Nc3cccc([N+](=O)[O-])c32)cc1` are 2400 nM and greater than 1000 nM.
Turning to `O=C1Nc2ccc(-c3cnco3)cc2/C1=C/Nc1ccc2c(c1)CS(=O)(=O)C2`, the half-inhibitory concentration (IC50) in assay [1] stood at 8.9 nM; in assay [2] it was 19 nM.
On to `NS(=O)(=O)c1ccc(N/N=C2\C(=O)Nc3ccc(Cl)cc32)cc1` [GW280670X], for which the IC50 in assay [1] stood at 43 nM; in assay [2] it was 300 nM.
In the same order, the values of `O=C1Nc2ccc3ncsc3c2/C1=C/Nc1ccc(S(=O)(=O)NCc2ccccc2)cc1` are 5.6 nM and 52 nM.
As for `NS(=O)(=O)c1ccc(NN=C2C(=O)Nc3ccc4[nH]ncc4c32)cc1`, the figures for the concentration for half-maximal inhibition (IC50) in assay [1] and in assay [2] were 13 nM and 120 nM, respectively.
Consider `C/C(Nc1ccc(S(N)(=O)=O)cc1)=C1/C(=O)Nc2ccc(-c3cnco3)cc21`, for which the concentration for half-maximal inhibition (IC50) in assay [1] was 2 nM; in assay [2], 7.1 nM.
`O=C1Nc2ccc3ncsc3c2/C1=C/Nc1ccc(S(=O)(=O)N[n+]2ccc3ccccc3c2)cc1` registered an IC50 in assay [2] of 42 nM.
In assay [2], `CNS(=O)(=O)c1ccc(N/C=C2\C(=O)Nc3ccccc32)cc1` had a 50% inhibitory concentration (IC50) of 2900 nM.
`O=C1Nc2ccccc2/C1=C/Nc1ccc(S(=O)(=O)Nc2nccs2)cc1` displayed an IC50 in assay [2] of 3800 nM.
Still for that read-out and setting: for `O=C1Nc2ccc3ncsc3c2/C1=C/Nc1ccc(S(=O)(=O)Nc2ccccn2)cc1` the value was 100 nM.

These data come from ChEMBL document CHEMBL1134300, “Oxindole-based inhibitors of cyclin-dependent kinase 2 (CDK2): design, synthesis, enzymatic activities, and X-ray crystallographic analysis” (J Med Chem, 2001).
